In PubChem BioAssay (NCI):
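Compound exposure: 48 hours, 5 concentrations, 96-well plates. TGI marks complete inhibition of growth.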

Legend:
Test in all cases: NCI-60 cell line screen, 48 h
UACC-257 melanoma = test system: UACC-257 melanoma
SF-268 CNS = test system: SF-268 CNS
NCI/ADR-RES ovarian = test system: NCI/ADR-RES ovarian
HL-60(TB) leukemia = test system: HL-60(TB) leukemia
KM12 colon = test system: KM12 colon
OVCAR-5 ovarian = test system: OVCAR-5 ovarian
OVCAR-3 ovarian = test system: OVCAR-3 ovarian
SW-620 colon = test system: SW-620 colon
MDA-N = test system: MDA-N
CAKI-1 renal = test system: CAKI-1 renal

Compound	TGI (UACC-257 melanoma) [µM]	TGI (SF-268 CNS) [µM]	TGI (NCI/ADR-RES ovarian) [µM]	TGI (HL-60(TB) leukemia) [µM]	TGI (KM12 colon) [µM]	TGI (OVCAR-5 ovarian) [µM]	TGI (OVCAR-3 ovarian) [µM]	TGI (SW-620 colon) [µM]	TGI (MDA-N) [µM]	TGI (CAKI-1 renal) [µM]
COC(=O)[C@H](Cc1ccccc1)NC(=O)CCCCCCC(=O)NO	45.4	72.1	> 100	> 100	> 100	43.9	34.9	> 100	56.6	> 100
O=c1[nH]c(Nc2cccc(CO)c2)nc2nc[nH]c12	> 100	> 100	> 100	> 100	> 100	> 100	> 100	> 100	> 100	> 100
CCCCn1c(-c2ccc([N+](=O)[O-])cc2)cs/c1=N/N=C1\C(=O)Nc2ccc(Br)cc21	47.2	> 100	37.4	85.9	38.2	> 100	39.8	> 100	45.2	63.2
Cc1ccc(/C=C2\Cc3c(C)cc(C)cc3C2=O)c(C(=O)O)c1	> 100	> 100	> 100	65.5	> 100	> 100	94	> 100	> 100	> 100
N#Cc1nc(NC(=O)c2ccccc2C(=O)O)c(C#N)[nH]1	> 100	> 100	> 100	> 100	> 100	> 100	> 100	> 100	> 100	> 100
O=C1CSC2=NC3=C(COC/C3=C\c3ccc(Br)cc3)C(c3ccc(Br)cc3)N12 (stereo not given)	> 100	> 100	> 100	36.9	> 100	> 100	> 100	> 100	> 100	> 100
CSc1n[nH]c(N)c1C(=O)Nc1ccccc1	> 100	> 100	> 100	> 100	> 100	> 100	> 100	> 100	> 100	> 100
CCOP(=O)(/C=C\n1ccc(N)nc1=O)OCC	> 100	> 100	> 100	> 100	> 100	> 100	> 100	> 100	> 100	> 100
COc1cc(/C=C/C=C2\CC/C(=C\C=C\c3ccc(O)c(OC)c3)C2=O)ccc1O	> 100	> 100	> 100	> 63.8	> 100	> 100	> 100	> 100	> 100	> 100
C#CCN(Cc1ccc2nc(OC)c(OC)nc2c1)c1cc(OC)c(OC)c(OC)c1	> 100	> 94.1	53.7	43.5	54.9	> 85.8	> 100	> 100	45.5	> 82.8
COC1CC(OC2CCC3(C)C(=CCC4C3C(OC(C)=O)C(OC(=O)CC(C)C)C3(C)C(C(C)=O)CCC43O)C2)OC(C)C1OC1CC(OC)C(OC2CC(OC)C(OC3OC(C)C(OC4OC(CO)C(O)C(O)C4O)C(OC)C3O)C(C)O2)C(C)O1 (stereo not given)	> 75	> 75	> 75	> 75	> 75	> 75	> 75	> 75	> 75	> 75
COc1nc(C#CC(C)(C)C)nc(OC)n1	> 100	78.6	46.1	> 100	40	42.5	77.3	73.3	> 100	51.9
CCOC(=O)c1nnsc1NN	> 100	> 100	> 100	> 100	> 100	> 100	> 100	> 100	> 100	> 100
Oc1[nH]c2ccccc2c1N=NC(=S)Nc1ccc(Cl)cc1	> 100	> 100	38.8	> 100	> 100	> 100	> 100	> 100	> 100	64
CC(=O)c1ccc2c(c1)CC1(C2)Cc2ccccc2C1=O (stereo not given)	50.8	> 100	75.6	70	> 100	> 100	> 100	> 100	> 100	> 100
CC1(C)[C@H]2CC[C@@]13C(=O)N1C(=O)O[C@@H]([C@H]1Cl)C(Cl)(COCc1ccccc1)C(=O)OCCO[C@H]3C2 (stereo not given in full)	> 100	> 100	> 100	> 100	> 100	> 100	> 100	> 100	> 100	> 100
COc1ccc(COCC[C@H](C)OC2OC(CO[Si](C)(C)C(C)(C)C)C(OC(=O)CCCN=[N+]=[N-])C(OC(=O)CCCN=[N+]=[N-])C2OC(=O)CCCN=[N+]=[N-])cc1 (stereo not given in full)	> 100	> 100	60.9	41.5	> 100	> 100	> 100	> 100	> 100	> 100
